Source: patent publication US20250326726A1, “FERROPTOSIS INHIBITORS-PHENOXAZINE ACETAMIDES” (SIRONAX (BEIJING) CO., LTD., priority 2023, published 2025)

Test system: HT-1080 cells
Test: RSL3-induced HT-1080 cells ferroptosis assay (10% FBS)
Format: cell-based

5-(dimethylamino)-N-((8-(trifluoromethyl)-10H-phenoxazin-3-yl)methyl)pentanamide [Compound 57]
Bioactivity (RSL3-induced HT-1080 cells ferroptosis assay (10% FBS)): 1 to 100 nM
